What all share (assay type): in vivo
Series [1] deals with Beet Armyworm (Spodoptera exigua, LAPHEG). As to the kind of experiment: Bioassays on Beet Armyworm (BAW), 128-well diet tray assay. The note with it: Spodoptera exigua. Put shortly: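 Mortality of second-instar larvae (1–5/well) on artificial diet treated with 50 μg/cm^2 compound, read after 5–7 days at 25° C.; values are means of eight wells.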
Series [2] relates to Cabbage Looper (Trichoplusia ni, TRIPNI). Put plainly: Bioassays on Cabbage Looper (CL), 128-well diet tray assay. The note with it: Trichoplusia ni. In outline: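 Second-instar larvae (1–5 per well) placed on artificial diet surface-treated with 50 μg/cm^2 test molecule applied in 90:10 acetone-water and dried. Held at 25° C., 14:10 light-dark, for five to seven days. Percent mortality scored per well and averaged over eight wells.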

The test system of series [3] is Yellow Fever Mosquito (Aedes aegypti, AEDSAE). The note with it: for YFM rating: Table ABC / ABC-DP rating. Put shortly: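 Rating-scale grades reflect larval mortality scored per well after 3 days at room temperature under non-evaporative lids. Larvae (~1 day old, hatched overnight in liver-powder water) were added to six daughter plates per compound, prepared from a 4000 ppm DMSO stock diluted in 90:10 water/acetone.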

Setting [4] is: Table ABC: Biological Results, species BAW, read-out: BAW.
Setting [5] is: Table ABC: Biological Results, species CL, read-out: CL.
Setting [6] is: Table ABC: Biological Results, species YFM.
The mark [7] stands for this setting: Beet Armyworm, Table ABC / ABC-DP rating, read-out: BAW rating.
The mark [8] stands for this setting: Cabbage Looper, Table ABC / ABC-DP rating, read-out: CL rating.
Where [9] appears, read: Beet Armyworm, rating class, read-out: BAW.
The mark [10] stands for this setting: Cabbage Looper, rating class, read-out: CL.
The mark [11] stands for this setting: Yellow Fever Mosquito, rating class.

Where two headings read alike, the source gives them in different places.

In the case of `O=C(Nc1ccc(F)cc1F)c1cc(NC(=O)[C@H]2[C@H](c3cc(F)c(Cl)c(C(F)(F)F)c3)C2(Cl)Cl)ccc1Cl` (relative stereo) [F1163, trans-2-Chloro-5-(2,2-dichloro-3-(4-chloro-3-fluoro-5-(trifluoromethyl)phenyl)cyclopropane-1-carboxamido)-N-(2,4-difluorophenyl)benzamide], the pest or weed control at 50 µg/cm2 in series [1] (setting [4]) and in series [2] (setting [5]) was 50 to 100% in each case. For the same molecule, the YFM entry in series [3] (setting [6]) is on record as “A (80–100)”.

In the case of `O=C(Nc1ccc(F)c(NC(=O)C(F)F)c1F)c1cc(NC(=O)[C@H]2[C@H](c3ccc(F)c(Cl)c3)C2(Cl)Cl)ccc1Cl` [F1270, 2-Chloro-5-((1R,3R)-2,2-dichloro-3-(3-chloro-4-fluorophenyl)cyclopropane-1-carboxamido)-N-(3-(2,2-difluoroacetamido)-2,4-difluorophenyl)benzamide], the pest or weed control at 50 µg/cm2 in series [1] (setting [4]) and in series [2] (setting [5]) was 50 to 100% throughout. Also, the YFM entry in series [3] (setting [6]) is reported as “A (80–100)”.

For the molecule `CC(C)(C)OC(=O)N(C(=O)OC(C)(C)C)c1c(F)ccc(NC(=O)c2cc(NC(=O)[C@H]3[C@H](c4ccc(Cl)c(Cl)c4)C3(Cl)Cl)ccc2Cl)c1F` [DP7, tert-Butyl-N-((tert-butoxy)carbonyl)-N-(3-(2-chloro-5-((1R,3R)-2,2-dichloro-3-(3,4-dichlorophenyl)cyclopropane-1-carboxamido)benzamido)-2,6-difluorophenyl)carbamate], the mortality (usually the share of the test organisms that died) at 50 µg/cm2 was 50 to 100% in series [1] (168 h, second instar larvae, 50 μg/cm^2 of test molecule on artificial diet, 25° C., five to seven days, average of eight wells, read-out: BAW % Control (or Mortality) rating) and 0 to 50% in series [2] (168 h, second instar larvae, 50 μg/cm^2 of test molecule on artificial diet, 25° C., five to seven days, average of eight wells, read-out: CL % Control (or Mortality) rating). Moreover, the results for the pest or weed control at 50 µg/cm2 in series [1] (setting [7]) and in series [2] (setting [8]) were 50 to 100% and 0 to 50%, respectively. For the same molecule, the “YFM % Control (or Mortality) rating” value in series [3] (about 1 day-old larvae, 4000 ppm master solution diluted with 90:10 water/acetone, 15 μL per well plus 220 μL larval mixture, 3 days, mortality) was “D (No activity noticed in this bioassay)”.

`O=C(Nc1ccc(F)c(NC(=O)C(F)F)c1F)c1cc(NC(=O)[C@H]2[C@H](c3ccc(Br)cc3)C2(Cl)Cl)ccc1Cl` (relative stereo) [F1597, trans-5-(3-(4-Bromophenyl)-2,2-dichlorocyclopropane-1-carboxamido)-2-chloro-N-(3-(2,2-difluoroacetamido)-2,4-difluorophenyl)benzamide]: the pest or weed control at 50 µg/cm2 in series [1] (setting [9]) and in series [2] (setting [10]) was 50 to 100% each time. The YFM entry in series [3] (setting [11]) is “A (80–100)”.

As to `C=C(F)c1cc(NC(=O)c2cc(NC(=O)[C@H]3[C@H](c4cc(Cl)cc(Cl)c4)C3(Cl)Cl)ccc2Cl)cc(F)c1F` (relative stereo) [F1323, trans-2-Chloro-5-(2,2-dichloro-3-(3,5-dichlorophenyl)cyclopropane-1-carboxamido)-N-(3,4-difluoro-5-(1-fluorovinyl)phenyl)benzamide], the pest or weed control at 50 µg/cm2 in series [1] (setting [4]) and in series [2] (setting [5]) was 50 to 100% in each case. The YFM entry in series [3] (setting [6]) is recorded as “A (80–100)”.

Regarding `O=C(Nc1ccc(F)c(NC(=O)C(F)F)c1F)c1cc(NC(=O)[C@H]2[C@H](c3cccc(F)c3)C2(Cl)Cl)ccc1Cl` (relative stereo) [F1602, trans-2-Chloro-5-(2,2-dichloro-3-(3-fluorophenyl)cyclopropane-1-carboxamido)-N-(3-(2,2-difluoroacetamido)-2,4-difluorophenyl)benzamide], the pest or weed control at 50 µg/cm2 in series [1] (setting [9]) and in series [2] (setting [10]) was 50 to 100% each time. Also, the YFM result in series [3] (setting [11]) is given as “A (80–100)”.

`O=C(COC(F)(F)C(F)(F)F)Nc1c(F)ccc(NC(=O)c2cc(NC(=O)[C@H]3[C@H](c4ccc(F)c(C(F)(F)F)c4)C3(Cl)Cl)ccc2Cl)c1F` [F1808, 2-Chloro-5-((1R,3R)-2,2-dichloro-3-(4-fluoro-3-(trifluoromethyl)phenyl)cyclopropane-1-carboxamido)-N-(2,4-difluoro-3-(2-(perfluoroethoxy)acetamido)phenyl)benzamide]: the pest or weed control at 50 µg/cm2 in series [1] (setting [7]) and in series [2] (setting [8]) was 50 to 100% each time. Besides, the YFM rating entry in series [3] (Yellow Fever Mosquito) is reported as “B (More than 0 – Less than 80)”.

On to `Cc1c(N)ccc(NC(=O)c2cc(NC(=O)[C@H]3[C@H](c4ccc(F)c(C(F)(F)F)c4)C3(Cl)Cl)ccc2Cl)c1C` [F1389, N-(4-Amino-2,3-dimethylphenyl)-2-chloro-5-((1R,3R)-2,2-dichloro-3-(4-fluoro-3-(trifluoromethyl)phenyl)cyclopropane-1-carboxamido)benzamide], for which the pest or weed control at 50 µg/cm2 in series [1] (setting [4]) and in series [2] (setting [5]) was 50 to 100% throughout. In addition, the YFM result in series [3] (setting [6]) is listed as “A (80–100)”.

As for `C/C=C/C(=O)Nc1c(F)ccc(NC(=O)c2cc(NC(=O)[C@H]3[C@H](c4ccc(F)c(C(F)(F)F)c4)C3(Cl)Cl)ccc2Cl)c1F` [F1868, N-(3-((E)-But-2-enamido)-2,4-difluorophenyl)-2-chloro-5-((1R,3R)-2,2-dichloro-3-(4-fluoro-3-(trifluoromethyl)phenyl)cyclopropane-1-carboxamido)benzamide], the pest or weed control at 50 µg/cm2 in series [1] (setting [7]) and in series [2] (setting [8]) was 50 to 100% in each case. Besides, the YFM rating result in series [3] (Yellow Fever Mosquito) is recorded as “A (80–100)”.

Consider `O=C(NCC(F)(F)C(F)(F)F)c1c(Cl)ccc(NC(=O)[C@H]2[C@H](c3ccc(F)c(Cl)c3)C2(Cl)Cl)c1Cl` (relative stereo) [F2005, trans-2,6-Dichloro-3-(2,2-dichloro-3-(3-chloro-4-fluorophenyl)cyclopropane-1-carboxamido)-N-(2,2,3,3,3-pentafluoropropyl)benzamide], for which the pest or weed control at 50 µg/cm2 in series [1] (setting [7]) and in series [2] (setting [8]) was 50 to 100% in each case. In addition, in series [3] (Yellow Fever Mosquito), the YFM rating entry was “A (80–100)”.

Regarding `C=C(F)c1cc(NC(=O)c2cc(NC(=O)[C@H]3[C@H](c4cc(Cl)cc(Cl)c4)C3(Cl)Cl)ccc2Cl)ccc1F` (relative stereo) [F1318, trans-2-Chloro-5-(2,2-dichloro-3-(3,5-dichlorophenyl)cyclopropane-1-carboxamido)-N-(4-fluoro-3-(1-fluorovinyl)phenyl)benzamide], the pest or weed control at 50 µg/cm2 in series [1] (setting [4]) and in series [2] (setting [5]) was 50 to 100% each time. For the same molecule, the YFM result in series [3] (setting [6]) is recorded as “A (80–100)”.

Turning to `O=C(Nc1ccc(F)c(NC(=O)C(F)(F)F)c1F)c1cc(NC(=O)[C@H]2[C@H](c3ccc(Cl)c(Cl)c3)C2(Cl)Cl)cc(F)c1F` [F1444, 5-((1R,3R)-2,2-Dichloro-3-(3,4-dichlorophenyl)cyclopropane-1-carboxamido)-N-(2,4-difluoro-3-(2,2,2-trifluoroacetamido)phenyl)-2,3-difluorobenzamide], the pest or weed control at 50 µg/cm2 in series [1] (setting [9]) and in series [2] (setting [10]) was 50 to 100% in each case. Further, in series [3] (setting [11]), the YFM result is given as “A (80–100)”.

Consider `O=C(Nc1ccc(F)cc1F)c1cc(NC(=O)[C@H]2[C@H](c3cc(F)c(Cl)c(Cl)c3)C2(Cl)Cl)ccc1Cl` (relative stereo) [F1024, trans-2-Chloro-5-(2,2-dichloro-3-(3,4-dichloro-5-fluorophenyl)cyclopropane-1-carboxamido)-N-(2,4-difluorophenyl)benzamide], for which the pest or weed control at 50 µg/cm2 in series [1] (setting [4]) and in series [2] (setting [5]) was 50 to 100% in each case. In series [3] (setting [6]), the YFM result is listed as “A (80–100)”.

Regarding `COCCNc1ccc(NC(=O)c2cc(NC(=O)[C@H]3[C@H](c4cc(Cl)cc(Cl)c4)C3(Cl)Cl)ccc2Cl)c(C)c1` (relative stereo) [F1162, trans-2-Chloro-5-(2,2-dichloro-3-(3,5-dichlorophenyl)cyclopropane-1-carboxamido)-N-(4-((2-methoxyethyl)amino)-2-methylphenyl)benzamide], the pest or weed control at 50 µg/cm2 in series [1] (setting [4]) and in series [2] (setting [5]) was 50 to 100% throughout. Besides, the YFM result in series [3] (setting [6]) is recorded as “A (80–100)”.

(Values after patent US20250228239A1, “MOLECULES HAVING PESTICIDAL UTILITY, AND INTERMEDIATES, COMPOSITIONS, AND PROCESSES, RELATED THERETO” (priority 2024, published 2025).)
